From patent US20080032939A1, “Iridoid-saccharide compound and method of using same” (Health Research, Inc., priority 2004, published 2008)

What was measured:
colo-26 tumor cells = assay: In vitro cytotoxicity in Colo-26 tumor cells; type: cell-based
Experimental: Vehicle: 1% Tween 80 in 5% dextrose solution.
(§1) All the plant products isolated from the bark of Plumeria bicolor were insoluble in water and were dissolved in 1% Tween 80 in 5% dextrose solution. Among these analogs, plumeiride 3 produced good cytotoxicity producing a lethal dose 60% (LD60) with 200 μM, and an LD20 with 400 μM C-17 in colo-26 tumor cells. […] Plumieride 3 was then evaluated for in vivo efficacy in mice (6 mice/group) bearing colo-26 tumors at variable concentrations. […] This response was doubled to 24 days when the dose was increased to 100 mg/kg/mouse (FIG. 3).

colo-26 tumors = assay: In vivo efficacy in mice bearing colo-26 tumors
Experimental: as §1
(§2) On day 9, the drug administration was stopped and tumors were allowed to grow until they reached the size of approximately 350 mm^3 in volume. The drug injection was resumed (150 mg/kg/mouse) daily for another 7 days.

[1] = Preliminary screening of toxicity in treated mice; type: in vivo; conditions: mice treated with compound 3
Experimental: as §2

[2] = colo-26 tumor cells, vehicle 1% Tween 80 in 5% dextrose

## COC(=O)C1=CO[C@@H](O[C@@H]2O[C@H](CO)[C@@H](O)[C@H](O)[C@H]2O)[C@H]2[C@@H]1C=C[C@@]21C=C([C@H](C)O)C(=O)O1 [compound 3, plumieride]
colo-26 tumor cells; [2]
  LD20: 400 µM
  lethal dose 60% (LD60): 200 µM
colo-26 tumor cells; compared with triterpenoids 1, 2
  relative effectiveness among the components isolated from the bark: most effective
colo-26 tumors; 150 mg/kg/mouse daily for another 7 days, resumed at tumor size approximately 350 mm^3
  tumor volume after injections were re-initiated: regressed to almost half the size
colo-26 tumors; 150 mg/kg/mouse, as long as the drug was injected (until day 9)
  tumor inhibition: complete tumor inhibition
colo-26 tumors; dose 100 mg/kg/mouse, mice bearing colo-26 tumors
  time with no increase in tumor volume: 24 days
colo-26 tumors; injected daily with 50 mg/kg/mouse, mice bearing colo-26 tumors
  time with no increase in tumor volume: 12 days
colo-26 tumors; mice bearing colo-26 tumors, variable concentrations
  tumor growth delay versus untreated control mice: significant tumor growth delay
[1]
  visible toxicity, body weight, daily habits: no visible toxicity as well as a change in body weight or daily habits
